The assay has as its target T1, URAT1EM (Homo sapiens, UniProt Q96S37, A280P/A304R/A323S/A335R/D313K/DEL311-312/DEL60-62/G295A/G309E/G331A/G338L/G65T/I63V/INS307H/L287I/L292P/L321M/L328V/L337V/L341F/L64S/M324V/M330S/M343V/P317I/P333E/Q332K/R291K/R301K/R325K/R342C/S329A/T288I/T289K/T314N/T339D/W294Q/W300R).
T1 construct: human URAT1 (residues 3–553), a (GGGGS)3 linker, and C-terminal DARPinoff7; expressed in transfected cells; host or cells: HEK293 cells (ATCC, CRL-3216), transient transfection
T1 sequence (Q96S37 with tags, fused parts or gaps DEL60-62/I63V/L64S/G65T/A280P/L287I/T288I/T289K/R291K/L292P/W294Q/G295A/W300R/R301K/A304R/INS307H/G309E/DEL311-312/D313K/T314N/P317I/L321M/A323S/M324V/R325K/L328V/S329A/M330S/G331A/Q332K/P333E/A335R/L337V/G338L/T339D/L341F/R342C/M343V): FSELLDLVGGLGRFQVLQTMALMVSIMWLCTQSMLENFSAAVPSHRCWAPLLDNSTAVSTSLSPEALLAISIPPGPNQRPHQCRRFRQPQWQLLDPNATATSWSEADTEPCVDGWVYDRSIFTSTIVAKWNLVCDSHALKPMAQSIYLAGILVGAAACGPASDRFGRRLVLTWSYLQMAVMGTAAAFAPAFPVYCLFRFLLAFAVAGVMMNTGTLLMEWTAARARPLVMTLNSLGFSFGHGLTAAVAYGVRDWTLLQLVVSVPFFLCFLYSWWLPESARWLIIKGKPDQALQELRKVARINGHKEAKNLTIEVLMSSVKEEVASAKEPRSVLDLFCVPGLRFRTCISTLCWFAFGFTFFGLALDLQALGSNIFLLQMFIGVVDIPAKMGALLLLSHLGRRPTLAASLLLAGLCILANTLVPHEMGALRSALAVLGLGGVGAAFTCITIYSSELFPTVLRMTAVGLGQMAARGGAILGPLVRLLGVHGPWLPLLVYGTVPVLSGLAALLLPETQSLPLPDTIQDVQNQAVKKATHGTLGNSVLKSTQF
The experiment in a line: 14C-urate uptake in HEK293 cells expressing URAT1EM (cryo-EM construct). The class given is cell-based. Here is the method:
Data are shown as mean ± SD; n = 3 biological replicates. In a, b, uptake buffer: 20 mM HEPES pH 7.4, 125 mM sodium gluconate, 4.8 mM potassium gluconate, 1.2 mM monobasic potassium phosphate, 1.2 mM magnesium sulfate, 1.3 mM calcium gluconate, and 5.6 mM glucose. c Cryo-EM density maps of URAT1 in the apo and substrate-bound states. […] Putative lipid densities are in light cyan. d Cryo-EM density maps of URAT1 in the drug-bound states. […] Putative lipid densities are in light cyan. e Diagram of URAT1 topology. ECD, extracellular domain. f Structure of URAT1 in the apo state. g Slice view of URAT1 in the apo state, showing the central cavity and opening to the intracellular side.
Human embryonic kidney (HEK) 293 cells (ATCC, CRL-3216) were seeded onto poly(D-lysine)-coated 96-well plates at a density of 0.3 × 10^5 cells per well and cultured at 37 °C until reaching approximately 70%–80% confluence. The cells were transiently transfected with plasmids encoding the URAT1 WT or mutants using Lipofectamine 3000 (Invitrogen, L3000001), following the manufacturer’s protocol. The transfected cells were cultured at 37 °C for 12 h. Following this, 10 mM sodium butyrate was added, and the cells were further incubated at 30 °C for an additional 24 h. […]

Take `O=C(c1cc(Cl)c(O)c(Cl)c1)N1CS(=O)(=O)c2ccccc21` [dotinurad]: the IC50 – broadly, the midpoint of a concentration-inhibition curve – amounted to 190 nM.

The values are drawn from paper PMC11528023, “Transport mechanism and structural pharmacology of human urate transporter URAT1” (Cell Research, 2024).
